Here are results for 1 molecule from US11357825B2, “Means for treating cardiovascular disease” (Universitaetsklinikum Hamburg-Eppendorf, priority 2017, dated 2022).

Structures are written as SMILES.

Experiment [1] relates to adult rat ventricular cardiomyocytes. In words: cell contractility assay, edge detection method (IonOptix). The experiment is classed as cell-based. The note with it: atenolol 100 nM, 20 min; 1 Hz pacing; with and without 10 nM isoproterenol. The protocol: FIG. 7. Experimental data for cardiomyocyte hypertrophy (A) and cell contractility (B) assays performed with freshly isolated adult rat ventricular cardiomyocytes (CM) using atenolol coated nanoparticles (Atenolol NP) and control nanoparticles.
Freshly isolated adult rat ventricular CMs were incubated for 20 min with atenolol (100 nM), atenolol coated or control nanoparticles (both at 30 nM) and cell contractility was measured using edge detection method (IonOptix) at 1 Hz pacing frequency with and without stimulation with 10 nM isoproterenol.

Experiment [2] addresses β1-AR (Homo sapiens, UniProt P08588). The note with it: HEK293 cells stably expressing β1-AR; pretreatment 20 min with 30 nM; ISO 0.1 nM.
Text: Experimental data with HEK293 cells stably expressing β1-AR and the cAMP biosensor Epac1-camps.

Chain of β1-AR (P08588 whole entry): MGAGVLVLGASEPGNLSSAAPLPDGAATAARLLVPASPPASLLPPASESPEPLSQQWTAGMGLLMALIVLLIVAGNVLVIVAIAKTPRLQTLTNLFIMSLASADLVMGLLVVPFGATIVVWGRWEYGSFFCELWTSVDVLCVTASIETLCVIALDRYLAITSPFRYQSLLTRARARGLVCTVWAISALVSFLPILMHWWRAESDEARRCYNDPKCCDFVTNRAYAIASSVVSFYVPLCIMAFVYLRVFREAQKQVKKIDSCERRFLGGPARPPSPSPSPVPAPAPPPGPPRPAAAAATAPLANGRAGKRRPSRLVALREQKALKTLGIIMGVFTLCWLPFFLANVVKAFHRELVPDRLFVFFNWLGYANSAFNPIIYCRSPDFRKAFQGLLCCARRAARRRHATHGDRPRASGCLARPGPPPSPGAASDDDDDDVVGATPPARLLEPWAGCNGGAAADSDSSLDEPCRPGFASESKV

`CC(C)NCC(O)COc1ccc(CC(N)=O)cc1` (centres unmarked) [atenolol]: in experiment [1], the cell contractility result is reported as “decrease cell contractility”. The “inhibition of ISO-induced cAMP increase (CFP/YFP ratio)” value in experiment [2] is reported as “efficacious in blocking β1-AR dependent cAMP synthesis”.
